pIC50, pKd: −log10 of the molar value. Read-outs that look alike come from different tables or passages of the source.
How the values were obtained:
[1] = test system: PC-9 cells (EGFR Ex19Del); experiment: Potency Assay: pERK (SOS1 pERK IC50 Assay, AlphaLISA SureFire Ultra p-ERK1/2); type: cell-based; conditions: Homo sapiens, read-out: SOS1 pERK IC50
Summary of the method: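 PC-9 (EGFR Ex19Del) cells plated overnight, then treated 1 h at 37° C. with 10-point 3-fold dilutions (top 10 μM final) in duplicate. Lysate pERK1/2 measured by AlphaLISA SureFire Ultra; IC50 from 4-parameter sigmoidal fit.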

[2] = target: T1, SOS1 catalytic domain (residues 564-1049) (Homo sapiens, UniProt Q07889); experiment: Potency Assay: binding affinity to SOS1 using Surface Plasmon Resonance (SPR); design: SOS1 catalytic domain (residues 564-1049) immobilized on a sensor chip; conditions: immobilized SOS1 catalytic domain (residues 564-1049), read-out: SOS1 SPR Equilibrium Kd
T1 sequence (Q07889 564-1049): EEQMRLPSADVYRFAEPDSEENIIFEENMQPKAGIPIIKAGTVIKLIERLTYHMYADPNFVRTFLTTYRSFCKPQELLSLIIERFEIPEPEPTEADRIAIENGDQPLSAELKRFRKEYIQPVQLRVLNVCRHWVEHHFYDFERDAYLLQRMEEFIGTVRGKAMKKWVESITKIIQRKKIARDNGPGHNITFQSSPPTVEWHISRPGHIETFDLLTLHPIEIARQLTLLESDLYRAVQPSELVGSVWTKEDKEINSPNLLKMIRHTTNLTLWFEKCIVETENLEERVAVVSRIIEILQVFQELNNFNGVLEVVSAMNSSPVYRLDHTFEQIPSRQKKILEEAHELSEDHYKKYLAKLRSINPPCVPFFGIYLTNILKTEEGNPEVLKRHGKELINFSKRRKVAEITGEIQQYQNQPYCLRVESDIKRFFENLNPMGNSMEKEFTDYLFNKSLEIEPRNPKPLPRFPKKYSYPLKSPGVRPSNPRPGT
Summary of the method: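 Avi-tagged SOS1 catalytic domain captured on streptavidin chip (~6000 RU) in 0.01 M HEPES, 0.15 M NaCl, 0.05% P20. Compound dilution series flowed at 50 μL/min for association, then buffer for dissociation, with double reference subtraction. Kd derived from end-of-association binding response plotted against concentration.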

[3] = target: T1, SOS1 catalytic domain (residues 564-1049); experiment: Mode of Action Assay: inhibition of SOS1 nucleotide exchange activity (SOS1 TR-FRET IC50 Assay)
[4] = PC-9 cells (EGFR Ex19Del), 1 hour incubation, AlphaLISA p-ERK1/2

C[C@@H](Nc1nc(Cl)nc2c1CN(C(=O)C1(C)CCN(C3COC3)C1)C2)c1cccc(C(F)F)c1F (stereo partly drawn) [Example 341]
pIC50 [1, 4]: > 6.00 | pKd [2]: > 6.40 | pIC50 [3]: > 6.00

C[C@@H](Nc1nc(Cl)nc2c1CN(C(=O)N1CCOCC1)C2)c1cccc(C(F)(F)C2COCCN2C)c1 (stereo partly drawn) [Example 460, (2-chloro-4-(((1R)-1-(3-(difluoro(4-methylmorpholin-3-yl)methyl)phenyl)ethyl)amino)-5,7-dihydro-6H-pyrrolo[3,4-d]pyrimidin-6-yl)(morpholino)methanone]
pIC50 [1, 4]: > 6.00 | pKd [2]: > 6.40 | pIC50 [3]: > 6.00

C[C@@H](Nc1nc(Cl)nc2c1CN(C(=O)N1CC3COCC(C1)N3)C2)c1cccc(C(F)F)c1F [Example 385]
pIC50 [1, 4]: > 6.00 | pKd [2]: > 6.40 | pIC50 [3]: > 6.00

C[C@@H](Nc1nc(Cl)nc2c1CN(C(=O)N1CCNCC(F)C1)C2)c1cccc(C(F)F)c1F (stereo partly drawn) [Example 404]
pIC50 [1, 4]: > 6.00 | pKd [2]: > 6.40 | pIC50 [3]: > 6.00

C[C@@H](Nc1nc(Cl)nc2c1CN(C(=O)N1CCOC(c3ccncc3)C1)C2)c1cc(N)cc(C(F)(F)F)c1 (stereo partly drawn) [Example 145]
pIC50 [1, 4]: > 6.00 | pKd [2]: > 6.40 | pIC50 [3]: > 6.00

COC1CN([C@H]2CCc3ncnc(N[C@H](C)c4cccc(C(F)F)c4F)c3C2)C1 [Example 444]
pIC50 [1, 4]: < 6.00 | pKd [2]: > 6.40 | pIC50 [3]: > 6.00

C[C@@H](Nc1nc(Cl)nc2c1CN(C(=O)N1CCS(=O)(=O)CC1)C2)c1cc(N)cc(C(F)(F)F)c1 [Example 148]
pIC50 [1, 4]: > 6.00 | pKd [2]: > 6.40 | pIC50 [3]: > 6.00

C[C@@H](Nc1nc(Cl)nc2c1CN(C(=O)C1(F)CCN(C3COC3)CC1)C2)c1cccc(C(F)F)c1F [Example 331]
pIC50 [1, 4]: > 6.00 | pKd [2]: > 6.40 | pIC50 [3]: > 6.00

C[C@@H](Nc1nc(Cl)nc2c1CN(C(=O)N1CCNCC13COC3)C2)c1cccc(C(F)F)c1F [Example 405]
pIC50 [1, 4]: < 6.00 | pKd [2]: > 6.40 | pIC50 [3]: > 6.00

C[C@@H](Nc1nc(Cl)nc2c1CN(C(=O)C1CCN(C)C1)C2)c1cccc(C(F)F)c1F (stereo partly drawn) [Example 319]
pIC50 [1, 4]: > 6.00 | pKd [2]: > 6.40 | pIC50 [3]: > 6.00

C[C@@H](Nc1nc(Cl)nc2c1CN(C(=O)N1CCNCC1)C2)c1cccc(C(F)F)c1F [Example 407]
pIC50 [1, 4]: > 6.00 | pKd [2]: > 6.40 | pIC50 [3]: > 6.00

C[C@@H](Nc1nc(Cl)nc2c1CN(S(=O)(=O)C1CCOC1)CC2)c1cc(N)cc(C(F)(F)F)c1 (stereo partly drawn) [Example 449]
pIC50 [1, 4]: > 6.00 | pKd [2]: > 6.40 | pIC50 [3]: > 6.00

C[C@@H](Nc1nc(Cl)nc2c1CC(N1CCN(C3CC3)CC1)CC2)c1cccc(C(F)(F)CO)c1 (stereo partly drawn) [Example 434]
pIC50 [1, 4]: > 6.00 | pKd [2]: > 6.40 | pIC50 [3]: > 6.00

C[C@@H](Nc1nc(Cl)nc2c1CN(C1CCOCC1)C2=O)c1cc(N)cc(C(F)(F)F)c1 [Example 30, 4-[[(1R)-1-[3-amino-5-(trifluoromethyl)phenyl]ethyl]amino]-2-chloro-6-tetrahydropyran-4-yl-5H-pyrrolo[3,4-d]pyrimidin-7-one]
pIC50 [1, 4]: < 6.00 | pKd [2]: > 6.40 | pIC50 [3]: > 6.00

Cc1nc(N[C@H](C)c2cccc(C(F)F)c2F)c2c(n1)N(C)C(=O)N(C1CCN(C)CC1)C2 [Example 445, (R)-5-((1-(3-(difluoromethyl)-2-fluorophenyl)ethyl)amino)-1,7-dimethyl-3-(1-methylpiperidin-4-yl)-3,4-dihydropyrimido[4,5-d]pyrimidin-2(1H)-one]
pIC50 [1, 4]: < 6.00 | pKd [2]: < 6.40 | pIC50 [3]: > 6.00

C[C@@H](Nc1nc(CN2CCOCC2)nc2c1CN(C(=O)N1CCOCC1)C2)c1cc(N)cc(C(F)(F)F)c1 [Example 504, N-[(1R)-1-[3-amino-5-(trifluoromethyl)phenyl]ethyl]-2-[(morpholin-4-yl)-methyl]-6-(morpholine-4-carbonyl)-5H,6H,7H-pyrrolo[3,4-d]pyrimidin-4-amine]
pIC50 [1, 4]: < 6.00 | pKd [2]: < 6.40 | pIC50 [3]: > 6.00

C[C@@H](Nc1nc(Cl)nc2c1CN(C(=O)[C@H]1COCCN1)C2)c1cccc(C(F)F)c1F [Example 304]
pIC50 [1, 4]: < 6.00 | pKd [2]: > 6.40 | pIC50 [3]: > 6.00

COC1(C(=O)N2Cc3nc(Cl)nc(N[C@H](C)c4cccc(C(F)F)c4F)c3C2)CCOCC1 [Example 330]
pIC50 [1, 4]: > 6.00 | pKd [2]: > 6.40 | pIC50 [3]: > 6.00

CNC1(C(=O)N2Cc3nc(Cl)nc(N[C@H](C)c4cccc(C(F)F)c4F)c3C2)CCOC1 (stereo partly drawn) [Example 334]
pIC50 [1, 4]: > 6.00 | pKd [2]: > 6.40 | pIC50 [3]: > 6.00

Cc1nc2c(c(N[C@H](C)c3cc(N)cc(C(F)(F)F)c3)n1)CN(S(C)(=O)=O)C2 [Example 46, (R)—N-(1-(3-amino-5-(trifluoromethyl)phenyl)ethyl)-2-methyl-6-(methylsulfonyl)-6,7-dihydro-5H-pyrrolo[3,4-d]pyrimidin-4-amine]
pIC50 [1, 4]: < 6.00 | pKd [2]: < 6.40 | pIC50 [3]: < 6.00

C[C@@H](Nc1nc(Cl)nc2c1CN(C(=O)c1ncccn1)C2)c1cc(N)cc(C(F)(F)F)c1 [Example 70]
pIC50 [1, 4]: > 6.00 | pKd [2]: < 6.40 | pIC50 [3]: < 6.00

C[C@@H](Nc1nc(Cl)nc2c1CN(C(=O)c1cc(N3CCOCC3)ccn1)CC2)c1cc(N)cc(C(F)(F)F)c1 [Example 238]
pIC50 [1, 4]: < 6.00 | pKd [2]: < 6.40 | pIC50 [3]: < 6.00

CC(CC(=O)N1Cc2nc(Cl)nc(N[C@H](C)c3cccc(C(F)F)c3F)c2C1)N1CCNCC1 (stereo partly drawn) [Example 296]
pIC50 [1, 4]: > 6.00 | pKd [2]: > 6.40 | pIC50 [3]: > 6.00

C[C@@H](Nc1nc(Cl)nc2c1CN(S(=O)(=O)N1CCN(C)CC1)CC2)c1cc(N)cc(C(F)(F)F)c1 [Example 184]
pIC50 [1, 4]: > 6.00 | pKd [2]: > 6.40 | pIC50 [3]: > 6.00

C[C@@H](Nc1nc(Cl)nc2c1CN(C(=O)[C@H]1CNCCO1)C2)c1cccc(C(F)(F)F)c1 [Example 281]
pIC50 [1, 4]: > 6.00 | pKd [2]: > 6.40 | pIC50 [3]: > 6.00

C[C@@H](Nc1nc(Cl)nc2c1CN(C(=O)c1ncccn1)CC2)c1cc(N)cc(C(F)(F)F)c1 [Example 236]
pIC50 [1, 4]: < 6.00 | pKd [2]: < 6.40 | pIC50 [3]: < 6.00

C[C@@H](Nc1nc(Cl)nc2c1CN(C(=O)c1cccnn1)CC2)c1cc(N)cc(C(F)(F)F)c1 [Example 235]
pIC50 [1, 4]: < 6.00 | pKd [2]: < 6.40 | pIC50 [3]: > 6.00

C[C@@H](Nc1nc(Cl)nc2c1CN(S(=O)(=O)C1CC(F)(F)C1)CC2)c1cc(N)cc(C(F)(F)F)c1 [Example 456]
pIC50 [1, 4]: > 6.00 | pKd [2]: > 6.40 | pIC50 [3]: > 6.00

Cc1nc2c(c(N[C@H](C)c3cc(N)cc(C(F)(F)F)c3)n1)CN(C(=O)OC1CCOCC1)C2 [Example 118, oxan-4-yl 4-{[(1R)-1-[3-amino-5-(trifluoromethyl)phenyl]ethyl]amino}-2-methyl-5H,6H,7H-pyrrolo[3,4-d]pyrimidine-6-carboxylate]
pIC50 ([1]; PC-9, 1 h): > 6.00 | pKd [2]: < 6.40 | pIC50 [3]: > 6.00

COC1(C(=O)N2Cc3nc(C(N)=O)nc(N[C@H](C)c4cccc(C(F)F)c4F)c3C2)CCOCC1 [Example 510, 4-{[(1R)-1-[3-(difluoromethyl)-2-fluorophenyl]ethyl]-amino}-6-(4-methoxyoxane-4-carbonyl)-5H,6H,7H-pyrrolo[3,4-d]pyrimidine-2-carboxamide]
pIC50 [1, 4]: < 6.00 | pKd [2]: > 6.40 | pIC50 [3]: > 6.00

CC(=O)N1CCN(C(=O)N2Cc3nc(Cl)nc(N[C@H](C)c4cccc(C(F)(F)F)c4)c3C2)CC1 [Example 381]
pIC50 [1, 4]: > 6.00 | pKd [2]: > 6.40 | pIC50 [3]: > 6.00

COc1nccc(C(=O)N2Cc3nc(Cl)nc(N[C@H](C)c4cc(N)cc(C(F)(F)F)c4)c3C2)n1 [Example 72]
pIC50 [1, 4]: > 6.00 | pKd [2]: < 6.40 | pIC50 [3]: > 6.00

COC1(C(=O)N2Cc3nc(Cl)nc(N[C@H](C)c4cccc(C(F)F)c4F)c3C2)CN(C)C1 [Example 324]
pIC50 [1, 4]: > 6.00 | pKd [2]: > 6.40 | pIC50 [3]: > 6.00

C[C@@H](Nc1nc(Cl)nc2c1CN(S(=O)(=O)C1CCCNC1)C2)c1cc(N)cc(C(F)(F)F)c1 (stereo partly drawn) [Example 49]
pIC50 [1, 4]: > 6.00 | pKd [2]: > 6.40 | pIC50 [3]: > 6.00

C[C@@H](Nc1nc(Cl)nc2c1CN(C(=O)C1COCCN1)C2)c1cccc(C(F)(F)F)c1 (stereo partly drawn) [Example 276]
pIC50 [1, 4]: < 6.00 | pKd [2]: < 6.40 | pIC50 [3]: > 6.00

COC1(C(=O)N2Cc3nc(Cl)nc(N[C@H](C)c4cccc(C(F)(F)CO)c4)c3C2)COC1 [Example 241]
pIC50 [1, 4]: > 6.00 | pKd [2]: > 6.40 | pIC50 [3]: > 6.00

C[C@@H](Nc1nc(Cl)nc2c1CN(C(=O)N1C[C@H]3CNC[C@H]3C1)C2)c1cccc(C(F)(F)F)c1 [Example 380]
pIC50 [1, 4]: < 6.00 | pKd [2]: > 6.40 | pIC50 [3]: > 6.00

— US20230096028A1, “BICYCLIC HETEROCYCLYL COMPOUNDS AND USES THEREOF” (Revolution Medicines, Inc., priority 2019, published 2023)
